Active and inactive are the calls of the source. The calls are words filed in the database; no cut-off is given here.
Key:
[1] = biological target: T1, Serine/threonine-protein kinase 26 (Homo sapiens, UniProt Q9P289); assay: Binding affinity to C-terminal full length human MST4 expressed in intact HEK293T cells incubated for 2 hrs by NanoBRET assay; type: cell-based
Target sequence in this assay (Q9P289 whole entry): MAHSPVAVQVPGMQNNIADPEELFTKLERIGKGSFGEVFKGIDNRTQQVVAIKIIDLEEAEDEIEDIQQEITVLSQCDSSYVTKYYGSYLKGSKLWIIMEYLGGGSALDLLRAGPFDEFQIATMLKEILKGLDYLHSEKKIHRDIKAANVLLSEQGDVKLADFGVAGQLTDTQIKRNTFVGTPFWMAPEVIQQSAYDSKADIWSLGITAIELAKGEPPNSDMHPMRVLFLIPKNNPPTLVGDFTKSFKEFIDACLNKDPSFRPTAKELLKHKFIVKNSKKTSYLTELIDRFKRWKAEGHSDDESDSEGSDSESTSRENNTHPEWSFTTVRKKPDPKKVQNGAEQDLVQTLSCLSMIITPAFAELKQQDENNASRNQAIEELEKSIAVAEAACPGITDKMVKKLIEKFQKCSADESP

[2] = biological target: T1, Serine/threonine-protein kinase 26; assay: Binding affinity to C-terminal full length human MST4 expressed in permeabilized HEK293T cells incubated for 2 hrs by NanoBRET assay; type: cell-based
Target sequence in this assay (Q9P289 whole entry): as above

[3] = biological target: T2, Serine/threonine-protein kinase 3 (Homo sapiens, UniProt Q13188); assay: Binding affinity to N-terminal full length human MST2 expressed in intact HEK293T cells incubated for 2 hrs by NanoBRET assay; type: cell-based
T2 sequence (Q13188 whole entry): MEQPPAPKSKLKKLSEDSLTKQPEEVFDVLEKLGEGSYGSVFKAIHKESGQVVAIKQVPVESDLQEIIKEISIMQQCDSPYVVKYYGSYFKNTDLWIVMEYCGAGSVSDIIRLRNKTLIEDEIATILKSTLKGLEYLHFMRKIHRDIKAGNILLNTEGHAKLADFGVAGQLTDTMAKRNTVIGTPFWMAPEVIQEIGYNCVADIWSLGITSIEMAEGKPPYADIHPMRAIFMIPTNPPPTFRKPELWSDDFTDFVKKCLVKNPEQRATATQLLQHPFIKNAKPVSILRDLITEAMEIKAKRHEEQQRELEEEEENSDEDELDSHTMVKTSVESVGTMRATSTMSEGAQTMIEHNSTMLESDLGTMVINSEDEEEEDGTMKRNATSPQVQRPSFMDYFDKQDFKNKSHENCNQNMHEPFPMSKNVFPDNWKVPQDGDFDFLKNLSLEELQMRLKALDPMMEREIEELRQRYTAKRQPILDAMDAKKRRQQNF

[4] = biological target: T3, Serine/threonine-protein kinase 4 (Homo sapiens) (UniProt Q13043); details: dose 10.0 µM
T3 sequence (whole entry): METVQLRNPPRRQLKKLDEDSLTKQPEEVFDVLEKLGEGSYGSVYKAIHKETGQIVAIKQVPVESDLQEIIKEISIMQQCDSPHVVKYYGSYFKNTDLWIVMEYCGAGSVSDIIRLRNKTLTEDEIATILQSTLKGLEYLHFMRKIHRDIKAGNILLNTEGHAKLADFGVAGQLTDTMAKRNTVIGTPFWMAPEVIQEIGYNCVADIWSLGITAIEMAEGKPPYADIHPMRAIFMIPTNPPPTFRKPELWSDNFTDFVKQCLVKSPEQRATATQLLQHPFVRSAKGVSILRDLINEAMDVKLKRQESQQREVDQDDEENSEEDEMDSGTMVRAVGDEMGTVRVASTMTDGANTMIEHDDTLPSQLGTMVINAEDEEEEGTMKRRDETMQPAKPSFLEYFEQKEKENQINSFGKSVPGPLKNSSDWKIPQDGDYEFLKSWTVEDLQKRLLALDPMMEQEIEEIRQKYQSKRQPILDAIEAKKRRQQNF
Description: Binding affinity to recombinant MST1 (unknown origin) kinase domain assessed as thermal stabilization by measuring change in melting temperature at 10 uM by DSF analysis

[5] = biological target: T4, Serine/threonine-protein kinase 3 (Homo sapiens) (UniProt Q13188); details: dose 10.0 µM
T4 sequence (whole entry): T2 sequence (Q13188 whole entry)
Description: Binding affinity to recombinant MST2 (unknown origin) kinase domain assessed as thermal stabilization by measuring change in melting temperature at 10 uM by DSF analysis

[6] = biological target: T5, Serine/threonine-protein kinase 4 (Homo sapiens, UniProt Q13043); assay: Binding affinity to N-terminal full length human MST1 expressed in intact HEK293T cells incubated for 2 hrs by NanoBRET assay; type: cell-based
T5 sequence (Q13043 whole entry): T3 sequence (whole entry)

[7] = biological target: T6, Serine/threonine-protein kinase 24 (Homo sapiens, UniProt Q9Y6E0); assay: Binding affinity to C-terminal full length human MST3 expressed in intact HEK293T cells incubated for 2 hrs by NanoBRET assay; type: cell-based
Target sequence in this assay (Q9Y6E0 whole entry): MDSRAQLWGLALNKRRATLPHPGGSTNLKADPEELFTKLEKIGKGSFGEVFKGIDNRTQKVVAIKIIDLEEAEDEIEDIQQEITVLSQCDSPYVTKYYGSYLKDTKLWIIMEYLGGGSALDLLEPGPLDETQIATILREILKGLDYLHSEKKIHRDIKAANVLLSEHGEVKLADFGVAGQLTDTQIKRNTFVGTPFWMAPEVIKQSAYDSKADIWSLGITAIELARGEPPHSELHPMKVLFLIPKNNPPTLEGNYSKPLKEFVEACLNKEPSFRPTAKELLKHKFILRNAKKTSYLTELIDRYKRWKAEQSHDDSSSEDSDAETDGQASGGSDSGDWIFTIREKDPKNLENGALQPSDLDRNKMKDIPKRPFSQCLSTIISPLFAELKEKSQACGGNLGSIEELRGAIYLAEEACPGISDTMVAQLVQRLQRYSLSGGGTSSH

[8] = biological target: T6, Serine/threonine-protein kinase 24; details: dose 10.0 µM
Target sequence in this assay (Q9Y6E0 whole entry, looked up): as the sequence (Q9Y6E0 whole entry) above
Description: Binding affinity to recombinant MST3 (unknown origin) kinase domain assessed as thermal stabilization by measuring change in melting temperature at 10 uM by DSF analysis

[9] = biological target: T6, Serine/threonine-protein kinase 24; assay: Binding affinity to C-terminal full length human MST3 expressed in permeabilized HEK293T cells incubated for 2 hrs by NanoBRET assay; type: cell-based
Target sequence in this assay (Q9Y6E0 whole entry): as above

[10] = biological target: T1, Serine/threonine-protein kinase 26; details: dose 10.0 µM
Target sequence in this assay (Q9P289 2-416 limits assumed): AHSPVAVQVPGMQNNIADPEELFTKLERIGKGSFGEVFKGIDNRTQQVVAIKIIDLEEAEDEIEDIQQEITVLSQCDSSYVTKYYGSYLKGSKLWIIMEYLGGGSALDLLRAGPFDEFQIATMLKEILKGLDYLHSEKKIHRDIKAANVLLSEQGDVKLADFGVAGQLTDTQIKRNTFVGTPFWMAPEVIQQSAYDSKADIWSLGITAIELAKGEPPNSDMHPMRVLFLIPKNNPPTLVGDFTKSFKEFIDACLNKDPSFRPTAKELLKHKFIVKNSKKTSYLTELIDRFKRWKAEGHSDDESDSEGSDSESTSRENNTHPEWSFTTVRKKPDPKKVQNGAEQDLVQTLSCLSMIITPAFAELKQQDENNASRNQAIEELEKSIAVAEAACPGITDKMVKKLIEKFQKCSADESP
Description: Binding affinity to recombinant MST4 (unknown origin) kinase domain assessed as thermal stabilization by measuring change in melting temperature at 10 uM by DSF analysis

HCT-116 [11] = assay: Cell cycle arrest in human HCT-116 cells expressing […] assessed as G2/M phase cells at 1 uM incubated for 72 hrs by Hoechst33342 staining based analysis (reference value: 38%); type: functional
HCT-116 [12] = assay: Cell cycle arrest in human HCT-116 cells expressing […] assessed as G1 phase cells at 1 uM incubated for 72 hrs by Hoechst33342 staining based analysis (reference value: 52%); type: functional
HCT-116 [13] = assay: Cell cycle arrest in human HCT-116 cells expressing […] assessed as S phase cells at 10 uM incubated for 72 hrs by Hoechst33342 staining based analysis relative to control; type: functional
HCT-116 [14] = assay: Cell cycle arrest in human HCT-116 cells expressing […] assessed as G2/M phase cells at 10 uM incubated for 72 hrs by Hoechst33342 staining based analysis (reference value: 38%); type: functional
HCT-116 [15] = assay: Cell cycle arrest in human HCT-116 cells expressing […] assessed as G1 phase cells at 10 uM incubated for 72 hrs by Hoechst33342 staining based analysis (reference value: 52%); type: functional
[16] = biological target: Glycogen synthase kinase-3 beta (Homo sapiens) (UniProt P49841); assay: Binding affinity to GSK3B (unknown origin) assessed as thermal stabilization by measuring change in melting temperature by DSF analysis
HCT-116 [17] = assay: Cell cycle arrest in human HCT-116 cells expressing […] assessed as S phase cells at 1 uM incubated for 72 hrs by Hoechst33342 staining based analysis relative to control; type: functional
[18] = biological target: T1, Serine/threonine-protein kinase 26; assay: Binding affinity to MST4 (unknown origin) assessed as residual activity at 10 uM relative to control
Target sequence in this assay (Q9P289 2-416 limits assumed): as above

[19] = biological target: T3, Serine/threonine-protein kinase 4 (Homo sapiens); assay: Binding affinity to MST1 (unknown origin) assessed as residual activity at 10 uM relative to control
[20] = biological target: T4, Serine/threonine-protein kinase 3 (Homo sapiens); assay: Binding affinity to MST2 (unknown origin) assessed as residual activity at 10 uM relative to control
[21] = Toxicity in human HCT-116 cells expressing FUCCI assessed as decrease in normalized cell count at 1 to 10 uM measured after 72 hrs by Hoechst33342 staining based analysis relative to control; parameters: scale not given: the % may be the effect or the level left; details: hct-116, 72 h, dose 1-10 µM

Glycogen synthase kinase-3 beta (Homo sapiens), sequence (P49841 whole entry, looked up): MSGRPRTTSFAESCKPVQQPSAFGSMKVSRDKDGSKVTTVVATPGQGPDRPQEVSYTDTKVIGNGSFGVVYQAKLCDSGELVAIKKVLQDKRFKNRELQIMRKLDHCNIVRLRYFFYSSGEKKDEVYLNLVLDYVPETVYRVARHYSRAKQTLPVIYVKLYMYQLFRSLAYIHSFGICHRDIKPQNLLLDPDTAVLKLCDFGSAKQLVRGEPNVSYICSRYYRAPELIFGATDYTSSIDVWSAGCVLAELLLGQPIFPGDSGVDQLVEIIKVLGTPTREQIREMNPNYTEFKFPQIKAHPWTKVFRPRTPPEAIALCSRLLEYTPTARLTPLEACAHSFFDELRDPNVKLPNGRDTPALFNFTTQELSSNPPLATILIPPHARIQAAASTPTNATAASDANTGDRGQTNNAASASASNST

Structure (SMILES) | EC50 [1] | EC50 [2] | EC50 [3] | ΔTm [4] | ΔTm [5] | EC50 [6] | EC50 [7] | ΔTm [8] | EC50 [9] | ΔTm [10] | other results
O=C1NCCCCCNc2ncc(Cl)c(n2)Nc2cc1[nH]n2 | > 50 µM | 7.76 µM | 10.1 µM | 2.5 °C | 2.8 °C | 9.74 µM | 40.3 µM | 2.7 °C | 2.67 µM | 1.6 °C | 
CNC(=O)c1nn(C)c2c1C(C)(C)Cc1cnc(Nc3ccc(N4CCN(C)CC4)cc3)nc1-2 [MILCICLIB] |  |  |  |  |  |  |  |  |  |  | Activity (HCT-116 [11]): 19%; Activity (HCT-116 [12]): 72%; Activity (HCT-116 [13]): 16%; Activity (HCT-116 [14]): 21%; Activity (HCT-116 [15]): 63%
O=C1NCCOCCNc2ncc(Cl)c(n2)Nc2cc1[nH]n2 | > 50 µM | 41.8 µM | > 50 µM | 1.1 °C | 0.6 °C | > 50 µM | > 50 µM | 0.6 °C | 17.7 µM | 2.8 °C | 
O=C1NCCOCCNc2nc(c3ccccc3n2)Nc2cc1[nH]n2 | 37.6 µM | 4.3 µM | > 50 µM | 0.6 °C | 0.5 °C | > 50 µM | 4.49 µM | 2.5 °C | 1.23 µM | 2.5 °C | Activity [16]: inactive
N#CCc1ccc(Nc2nccc(Nc3cc(C4CC4)[nH]n3)n2)cc1 | 4.84 µM |  |  | 9.6 °C | 11.6 °C |  | 6.54 µM | 9.3 °C |  | 7.1 °C | Activity (HCT-116 [11]): 30%; Activity (HCT-116 [17]): 18%; Activity (HCT-116 [12]): 52%; Activity (HCT-116 [13]): 16%; Activity [18]: 0.15%; Activity [19]: 0.15%; Activity (HCT-116 [14]): 42%; Activity [20]: 0.15%; Activity [21]: < 50%; Activity (HCT-116 [15]): 42%

The next lines start with results.

EC50 [1] | EC50 [2] | EC50 [3] | ΔTm [4] | ΔTm [5] | EC50 [6] | EC50 [7] | ΔTm [8] | EC50 [9] | ΔTm [10] | Structure (SMILES) | other results
38.8 µM | > 50 µM | > 50 µM | 1 °C | 0.2 °C | > 50 µM | 37 µM | 0.5 °C | 38.3 µM | 2.3 °C | Cc1cnc2nc1Nc1cc([nH]n1)C(=O)NCCc1ccc(cc1)N2 | 
> 50 µM | 45 µM | > 50 µM | 1.5 °C | 1 °C | > 50 µM | > 50 µM | 0.3 °C | 21.9 µM | 2.1 °C | O=C1NCCCCCCNc2ncc(Cl)c(n2)Nc2cc1[nH]n2 | 
11.8 µM | 2.44 µM | 13 µM | 1.7 °C | 1.3 °C | 13.7 µM | 6.51 µM | 3.9 °C | 0.92 µM | 4 °C | O=C1NCCc2cccc(c2)Nc2nc(c3ccccc3n2)Nc2cc1[nH]n2 | 
6.71 µM | 7.61 µM | 9.96 µM | 0.3 °C | 0.7 °C | 11.8 µM | 4.97 µM | 1.2 °C | 5.17 µM | 0.7 °C | O=C1NCCc2ccc(cc2)Nc2ncc(Cl)c(n2)Nc2cc1[nH]n2 | 
10.2 µM | 10.3 µM | 7.54 µM | 0.8 °C | 1.7 °C | 7.84 µM | 14.1 µM | 2.9 °C | 8.53 µM | 0.6 °C | O=C1NCCc2cccc(c2)Nc2ncc(Cl)c(n2)Nc2cc1[nH]n2 | 
17.5 µM | 2.75 µM | 28.3 µM | 1 °C | 2.3 °C | 28.6 µM | 4.45 µM | 3.3 °C | 1.46 µM | 4.7 °C | O=C1NCCc2ccc(cc2)Nc2nc(c3ccccc3n2)Nc2cc1[nH]n2 | 
 | 1.26 µM | 40.1 µM | 0.7 °C | 0.4 °C | > 50 µM | 1.75 µM | 3.7 °C | 0.45 µM | 4 °C | O=C1NCCCCCCNc2nc(c3ccccc3n2)Nc2cc1[nH]n2 | ΔTm [16]: > 5 °C
